Results reported in patent US10654829B2, “Crystalline forms and compositions of CFTR modulators” (Vertex Pharmaceuticals Incorporated, priority 2017, dated 2020).
Entries after “also recorded” stand apart in the source; their conditions may differ. Where two headings read alike, the source gives them in different places.

Tests used:
[1] = target: T1, F508del-CFTR (Homo sapiens, UniProt P13569, DEL508-508); experiment: Ussing chamber assay, chloride transport in HBE cells; type: cell-based; set-up: CF-HBE were isolated from patients homozygous for F508del; endogenous in cells; host or cells: primary CF human bronchial epithelial cells (F508del/F508del-HBE)
T1 sequence (P13569 with tags, fused parts or gaps DEL508-508): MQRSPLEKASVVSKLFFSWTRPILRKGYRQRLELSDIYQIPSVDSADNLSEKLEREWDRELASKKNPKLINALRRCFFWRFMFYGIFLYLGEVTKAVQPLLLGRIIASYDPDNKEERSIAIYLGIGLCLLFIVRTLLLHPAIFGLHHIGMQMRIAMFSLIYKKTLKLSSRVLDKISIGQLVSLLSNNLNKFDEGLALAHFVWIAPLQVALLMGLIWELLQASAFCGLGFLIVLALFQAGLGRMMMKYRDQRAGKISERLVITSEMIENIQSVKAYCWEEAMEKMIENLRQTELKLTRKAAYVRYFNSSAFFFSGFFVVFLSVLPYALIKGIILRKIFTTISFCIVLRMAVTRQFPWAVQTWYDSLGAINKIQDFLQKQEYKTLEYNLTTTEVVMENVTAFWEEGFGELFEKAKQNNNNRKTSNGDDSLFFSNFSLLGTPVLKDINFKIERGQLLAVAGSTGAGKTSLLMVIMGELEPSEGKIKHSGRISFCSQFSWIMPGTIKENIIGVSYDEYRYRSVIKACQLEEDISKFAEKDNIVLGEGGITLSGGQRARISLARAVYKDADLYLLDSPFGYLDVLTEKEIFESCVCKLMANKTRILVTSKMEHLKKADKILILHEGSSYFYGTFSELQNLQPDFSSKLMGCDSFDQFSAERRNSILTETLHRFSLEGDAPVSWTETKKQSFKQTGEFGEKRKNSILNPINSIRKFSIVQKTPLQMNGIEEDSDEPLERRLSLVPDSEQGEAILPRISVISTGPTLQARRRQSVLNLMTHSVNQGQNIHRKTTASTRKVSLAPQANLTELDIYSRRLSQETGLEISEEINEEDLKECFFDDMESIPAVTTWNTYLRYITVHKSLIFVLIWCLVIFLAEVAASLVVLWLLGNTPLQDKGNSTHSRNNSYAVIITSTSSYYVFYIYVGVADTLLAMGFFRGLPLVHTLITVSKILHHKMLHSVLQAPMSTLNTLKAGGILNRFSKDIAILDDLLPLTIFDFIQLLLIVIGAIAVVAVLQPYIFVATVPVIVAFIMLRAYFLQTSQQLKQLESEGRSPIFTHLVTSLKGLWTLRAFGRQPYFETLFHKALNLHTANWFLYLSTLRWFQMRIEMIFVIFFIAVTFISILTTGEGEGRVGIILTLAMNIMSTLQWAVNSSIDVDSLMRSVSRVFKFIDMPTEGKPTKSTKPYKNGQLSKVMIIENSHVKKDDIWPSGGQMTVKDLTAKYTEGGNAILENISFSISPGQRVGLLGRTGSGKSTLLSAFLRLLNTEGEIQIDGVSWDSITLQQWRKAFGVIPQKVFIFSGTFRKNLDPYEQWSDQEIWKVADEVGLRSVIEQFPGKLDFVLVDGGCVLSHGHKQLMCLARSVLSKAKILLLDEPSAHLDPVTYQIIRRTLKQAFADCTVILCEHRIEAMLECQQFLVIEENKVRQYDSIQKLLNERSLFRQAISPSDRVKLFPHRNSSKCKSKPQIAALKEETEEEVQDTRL
Method: Using chamber experiments were performed on polarized airway epithelial cells expressing F508del to further characterize the F508del modulators identified in the optical assays. Non-CF and CF airway epithelia were isolated from bronchial tissue, cultured as previously described (Galietta, L. J. V., Lantero, S., Gazzolo, A., Sacco, O., Romano, L., Rossi, G. A., & Zegarra-Moran, O. (1998) In Vitro Cell. Dev. Biol. 34, 478-481), and plated onto Costar® Snapwell™ filters that were precoated with NIH3T3-conditioned media. After four days the apical media was removed and the cells were grown at an air liquid interface for >14 days prior to use. […] CF-HBE were isolated from patients homozygous for F508del or compound heterozygous for F508del with a different disease causing mutation on the other allele.
HBE grown on Costar® Snapwell™ cell culture inserts were mounted in an Using chamber (Physiologic Instruments, Inc., San Diego, Calif.), and the transepithelial resistance and short-circuit current in the presence of a basolateral to apical Cl^− gradient (ISC) were measured using a voltage-clamp system (Department of Bioengineering, University of Iowa, IA). Briefly, HBE were examined under voltage-clamp recording conditions (Vhold=0 mV) at 37° C. The basolateral solution contained (in mM) 145 NaCl, 0.83 K2HPO4, 3.3 KH2PO4, 1.2 MgCl2, 1.2 CaCl2, 10 Glucose, 10 HEPES (pH adjusted to 7.35 with NaOH) and the apical solution contained (in mM) 145 NaGluconate, 1.2 MgCl2, 1.2 CaCl2), 10 glucose, 10 HEPES (pH adjusted to 7.35 with NaOH).
Typical protocol utilized a basolateral to apical membrane Cl^− concentration gradient. To set up this gradient, normal ringers was used on the basolateral membrane, whereas apical NaCl was replaced by equimolar sodium gluconate (titrated to pH 7.4 with NaOH) to give a large Cl^− concentration gradient across the epithelium. Modulators were added either to the basolateral side […] to assay or to the apical side during the assay. Forskolin (10 μM) was added to the apical side during the assay to stimulate CFTR-mediated Cl^− transport.

[2] = target: T1, F508del-CFTR; experiment: F508del-CFTR processing and trafficking in vitro (170 to 180 kDa band); type: cell-based; set-up: CF-HBE were isolated from patients homozygous for F508del; endogenous in cells; host or cells: primary CF human bronchial epithelial cells (F508del/F508del-HBE)
Text: Processing and trafficking of F508del-CFTR was directly monitored by the appearance of a 170 to 180 kDa band.

[3] = target: T1, F508del-CFTR; experiment: Membrane potential optical (FLIPR) assay for F508del-CFTR modulators; type: cell-based; set-up: expressed in transfected cells
Text: The assay utilizes fluorescent voltage sensing dyes to measure changes in membrane potential using a fluorescent plate reader (e.g., FLIPR III, Molecular Devices, Inc.) as a readout for increase in functional F508del in NIH 3T3 cells. The driving force for the response is the creation of a chloride ion gradient in conjunction with channel activation and concurrent with compound treatment by a single liquid addition step after the cells have previously been loaded with a voltage sensing dye.
To identify modulators of F508del, a fluorescence based HTS assay format was developed. This HTS assay utilizes fluorescent voltage sensing dyes to measure changes in membrane potential on the FLIPR III as a measurement for increase in gating (conductance) of F508del NIH 3T3 cells. The driving force for the response is the creation of a chloride ion gradient in conjunction with channel activation and concurrent with compound treatment by a single liquid addition step after the cells have previously been loaded with a voltage sensing dye.
(in mM) NaCl 160, KCl 4.5, CaCl2) 2, MgCl2 1, HEPES 10, pH 7.4 with NaOH, Glucose 10.
Chloride salts in Bath Solution #1 (above) are substituted with gluconate salts.
NIH3T3 mouse fibroblasts stably expressing F508del are used for optical measurements of membrane potential. The cells are maintained at 37° C. in 5% CO2 and 90% humidity in Dulbecco's modified Eagle's medium supplemented with 2 mM glutamine, 10% fetal bovine serum, 1×NEAA, β-ME, 1× pen/strep, and 25 mM HEPES in 175 cm^2 culture flasks. For all optical assays, the cells were seeded at 12,000 cells/well in 384-well matrigel-coated plates and cultured for 18-24 hrs at 37° C. for the potentiator assay. For the correction assays, the cells are cultured at 37° C. with and without compounds for 18-24 hours.

[4] = pKa determination; type: physicochemical

Row | SMILES | potentiation of F508del-CFTR delivered to the cell surface by Compound I alone or in combination with Compound II ([1]; HBE cells) | increase in steady-state levels, fold of untreated levels ([2]; F508del/F508del-HBE cells, 16 to 24 hours, 1 μM Compound I alone) [fold] | processing and trafficking of F508del-CFTR ([2]; in vitro) | EC50 ([3]; CFTR Activity, Table 120, read-out: CFTRdF508 EC50) [nM] | EC50 ([3]; F508del NIH 3T3 cells, membrane potential HTS assay, read-out: EC50) [nM] | Emax ([3]; NIH3T3, F508del NIH 3T3 cells, relative to Compound II, read-out: % Efficacy relative to Compound II) [%] | pKa [4] | chloride transport ([1]; F508del/F508del-HBE cells) | effect on chloride transport together with Compound II ([1]; F508del/F508del-HBE cells)
1 | CC(C)(C)c1cc(C(C)(C)C)c(NC(=O)c2c[nH]c3ccccc3c2=O)cc1O [Compound III, N-(5-hydroxy-2,4-di-tert-butyl-phenyl)-4-oxo-1H-quinoline-3-carboxamide, reference compound] | potentiated | – | – | – | – | – | – | – | –
2 | C[C@@H]1CN(c2nc(-n3ccc(OCCC4(C(F)(F)F)CC4)n3)ccc2C(=O)NS(=O)(=O)c2ccccc2)C(C)(C)C1 [Compound I, N-(benzenesulfonyl)-6-[3-[2-[1-(trifluoromethyl)cyclopropyl]ethoxy]pyrazol-1-yl]-2-[(4S)-2,2,4-trimethylpyrrolidin-1-yl]pyridine-3-carboxamide] | – | 6.5 | improved the processing and trafficking of F508del-CFTR; also recorded: facilitates the processing and trafficking of F508del-CFTR | < 100 | < 3000 | ≥ 100 | 4.95 ± 0.06 | enhanced chloride transport | additive to the effect of Compound II
